Earlier results, collected in patent US20060093571A1, “Hair and skin protecting compositions based on esters or ethers of betulin” (priority 2004, published 2006).

Legend:
[1] = biological target: T1, elastase (Homo sapiens, UniProt P08246); conditions: known from literature
T1 sequence (P08246 30-247 limits assumed): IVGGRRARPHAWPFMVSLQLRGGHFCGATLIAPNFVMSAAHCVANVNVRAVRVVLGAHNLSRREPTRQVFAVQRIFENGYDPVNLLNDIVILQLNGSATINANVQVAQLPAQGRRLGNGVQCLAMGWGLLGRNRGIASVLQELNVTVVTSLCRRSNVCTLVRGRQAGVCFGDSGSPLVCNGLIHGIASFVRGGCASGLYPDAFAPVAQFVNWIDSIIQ

solubility in polar and non-polar solvents	inhibition of enzymatic activity of elastase [1]	Compound
poor solubility	–	C=C(C)[C@@H]1CC[C@]2(C(=O)O)CC[C@]3(C)[C@H](CC[C@@H]4[C@@]5(C)CC[C@H](O)C(C)(C)[C@@H]5CC[C@]43C)[C@@H]12 [betulinic acid]
poor solubility	inhibit	CC1(C)CC[C@]2(C(=O)O)CC[C@]3(C)C(=CC[C@@H]4[C@@]5(C)CC[C@H](O)C(C)(C)[C@@H]5CC[C@]43C)[C@@H]2C1 [oleanolic acid]
poor solubility	inhibit	C[C@H]1[C@H](C)CC[C@]2(C(=O)O)CC[C@]3(C)C(=CC[C@@H]4[C@@]5(C)CC[C@H](O)C(C)(C)[C@@H]5CC[C@]43C)[C@H]12 [ursolic acid]

Compound	solubility in polar and non-polar solvents	inhibition of enzymatic activity of elastase [1]
C=C(C)[C@@H]1CC[C@]2(CO)CC[C@]3(C)[C@H](CC[C@@H]4[C@@]5(C)CC[C@H](O)C(C)(C)[C@@H]5CC[C@]43C)[C@@H]12 [Betulin]	poor solubility	inhibit
